Test results as given in ChEMBL document CHEMBL1144698, “New approach to measure protein binding based on a parallel artificial membrane assay and human serum albumin” (J Med Chem, 2008).

How the values were obtained:
Type in all cases: ADME
Albumin [1] = molecular target: T1, Albumin (Homo sapiens, UniProt P02768); assay: Binding affinity to human serum albumin by PAMPA method
Albumin [2] = molecular target: T1, Albumin; assay: Binding affinity to 100 uM human serum albumin at 10 uM by PAMPA method
Albumin [3] = molecular target: T1, Albumin; assay: Binding affinity to 600 uM human serum albumin at 10 uM by PAMPA method
Albumin [4] = molecular target: T1, Albumin; assay: Binding affinity to 300 uM human serum albumin at 10 uM by PAMPA method
Albumin [5] = molecular target: T1, Albumin; assay: Binding affinity to 100 uM human serum albumin at 50 uM by PAMPA method
Albumin [6] = molecular target: T1, Albumin; assay: Binding affinity to 50 uM human serum albumin at 10 uM by PAMPA method

T1 sequence (P02768 whole entry): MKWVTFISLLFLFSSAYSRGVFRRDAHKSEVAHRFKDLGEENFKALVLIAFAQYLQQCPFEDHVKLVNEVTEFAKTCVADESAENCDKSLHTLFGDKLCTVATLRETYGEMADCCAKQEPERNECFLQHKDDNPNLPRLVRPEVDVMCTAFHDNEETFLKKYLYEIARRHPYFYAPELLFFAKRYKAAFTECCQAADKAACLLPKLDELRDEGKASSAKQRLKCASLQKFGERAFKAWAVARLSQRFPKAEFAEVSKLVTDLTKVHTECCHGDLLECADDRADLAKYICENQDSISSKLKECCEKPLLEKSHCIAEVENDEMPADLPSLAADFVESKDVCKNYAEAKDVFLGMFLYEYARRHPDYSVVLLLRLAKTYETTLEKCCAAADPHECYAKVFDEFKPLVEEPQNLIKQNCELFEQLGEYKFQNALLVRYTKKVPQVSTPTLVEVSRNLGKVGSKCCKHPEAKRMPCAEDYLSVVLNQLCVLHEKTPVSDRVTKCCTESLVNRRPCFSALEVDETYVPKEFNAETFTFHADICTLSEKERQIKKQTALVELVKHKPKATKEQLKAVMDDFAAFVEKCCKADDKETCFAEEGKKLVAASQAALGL

| Kd (Albumin [1]) [µM] | Kd (Albumin [2]) [µM] | Kd (Albumin [3]) [µM] | Kd (Albumin [4]) [µM] | Kd (Albumin [5]) [µM] | Kd (Albumin [6]) [µM] | Compound |
| --- | --- | --- | --- | --- | --- | --- |
| 851 |  |  |  |  |  | CNCCCN1c2ccccc2CCc2ccccc21 [DESIPRAMINE] |
| 437 | 661 | 631 | 603 | 437 | 355 | CC(C)NCC(O)COc1cccc2ccccc12 (configuration not stated) [PROPRANOLOL] |
